Measurements reported in US12359230B2, “Microbial oils with high levels of omega-3 fatty acids” (MARA Renewables Corporation, priority 2020, dated 2025).

How the values were obtained:
Assay type in all cases: cell-based
[1] = test system: Aurantiochytrium sp. (G3); test: Cerulenin dose timing: fatty acid profile of Aurantiochytrium sp. (G3)
Experimental: To determine the ideal time for addition of the fatty acid synthase inhibitor cerulenin without excessive harm such as preventing cell growth, experiments were conducted by adding a set amount of cerulenin at various amounts of time after inoculation. In all experiments, the control experiment was performed with the same medium and growth conditions without the addition of FAS inhibitors.

[2] = test system: Aurantiochytrium sp. (G3); test: Cerulenin concentration: fatty acid profile of Aurantiochytrium sp. (G3); conditions: 20° C.
Experimental: To determine the optimum concentration of cerulenin to provide the best results, a range of concentrations from 1 μM to 40 μM were tested. For consistency, all cerulenin additions were made at 24 hours after inoculation. […] (G3) in varying concentrations of cerulenin at 20° C.

[3] = test system: Aurantiochytrium sp. (G3); test: Cerulenin dosing regimen: fatty acid profile of Aurantiochytrium sp. (G3); conditions: for DHA: DPA / Fatty Acid Content, TFA: 20° C.
Experimental: To investigate the effect of prolonged, repeated exposure to cerulenin, doses were spread equally across 3 or 6 times during the experiment. In each case, the total amount added was equivalent to the corresponding treatments that were added entirely at 24 hours. All additions began at 24 hours after inoculation. In FIGS. 3 and 4, a clear trend of increasing DHA and DPA was visible with both increasing cerulenin concentration and by dosing the cerulenin in multiple equivalent pulses.

[4] = test system: Aurantiochytrium sp. (G3); test: Cerulenin effect on product concentration and yield per carbon consumed
Excerpt: To assess the impact of the herein described methods for PUFA enhancement strategy, the yields of product (i.e. TFA, DHA or DPA) relative to the amount of carbon assimilated by the G3 cells was investigated. In FIG. 5, the total amount of product synthesized (categorized as total fatty acids (TFA), saturated fatty acids (SFA) or DHA) is depicted. In the presence of fatty acid synthesis inhibitors, dosed at certain frequency and concentration, both TFA and DHA concentration increased while SFA concentration decreased. For example, under the condition where cerulenin was dosed 1 μM each time for 6 times at 12 hour intervals, TFA and DHA increased by 15% and 71%, respectively, when compared to the results of the control experiment (FIG. 5).

[5] = 25 μM cerulenin added 0 hr after inoculation, 20° C.
[6] = 25 μM cerulenin added 24 hr after inoculation, 20° C.
[7] = 25 μM cerulenin added 48 hr after inoculation, from 25° C. data
[8] = cerulenin added 24 hours after inoculation
[9] = 1 μM cerulenin added at 24 hours after inoculation
[10] = 2 μM cerulenin added at 24 hours after inoculation
[11] = 3 μM cerulenin added at 24 hours after inoculation
[12] = 6 μM cerulenin added at 24 hours after inoculation
[13] = 9 μM cerulenin added at 24 hours after inoculation
[14] = 25 μM cerulenin added at 24 hours after inoculation
[15] = 40 μM cerulenin added at 24 hours after inoculation
[16] = 3 μM cerulenin added entirely at 24 hours
[17] = 6 μM cerulenin added entirely at 24 hours
[18] = 9 μM cerulenin added entirely at 24 hours
[19] = 25 μM cerulenin added entirely at 24 hours
[20] = 3 × 1 μM cerulenin, interval 24 hours, starting at 24 hours after inoculation
[21] = 3 × 2 μM cerulenin, interval 24 hours, starting at 24 hours after inoculation
[22] = 3 × 3 μM cerulenin, interval 24 hours, starting at 24 hours after inoculation
[23] = 3 × 8.3 μM cerulenin, interval 24 hours, starting at 24 hours after inoculation
[24] = 6 × 0.5 μM cerulenin, interval 12 hours, starting at 24 hours after inoculation
[25] = 6 × 1 μM cerulenin, interval 12 hours, starting at 24 hours after inoculation
[26] = 6 × 2 μM cerulenin, interval 12 hours, starting at 24 hours after inoculation
[27] = 6 × 3 μM cerulenin, interval 12 hours, starting at 24 hours after inoculation
[28] = 6 × 4.17 μM cerulenin, interval 12 hours, starting at 24 hours after inoculation
[29] = cerulenin 1 μM each time for 6 times at 12 hour intervals

In the case of `C/C=C/C/C=C/CCC(=O)[C@H]1O[C@H]1C(N)=O` [cerulenin], the “DHA: DPA” value [1, 5] is reported as 6.13, the “Fatty Acid Content, TFA” value [1, 5] is reported as 579.14 mg/g of dry biomass and the “DHA: DPA” value [1, 6] is reported as 5.14. The “Fatty Acid Content, TFA” value [1, 6] was 560.24 mg/g of dry biomass, the “DHA: DPA” value [1, 7] was 4.58 and the “Fatty Acid Content, TFA” value [1, 7] was 641.86 mg/g of dry biomass. For the same compound, the “C14:0 reduced (% of TFA, vs control)” value [1, 8] was 21.1%, the “C16:0 reduced (% of TFA, vs control)” value [1, 8] was 27.9% and the cell growth ([1]; cerulenin added at any addition time after inoculation) was “not inhibited”. The “DHA: DPA” value [2, 9] was 8.73, the “Fatty Acid Content, TFA” value [2, 9] was 580.28 mg/g of dry biomass and the “DHA: DPA” value [2, 10] was 8.50. The “Fatty Acid Content, TFA” value [2, 10] was 580.90 mg/g of dry biomass, the “DHA: DPA” value [2, 11] was 6.77 and the “Fatty Acid Content, TFA” value [2, 11] was 658.72 mg/g of dry biomass. For the same compound, the “DHA: DPA” value [2, 12] was 6.87, the “Fatty Acid Content, TFA” value [2, 12] was 619.88 mg/g of dry biomass and the “DHA: DPA” value [2, 13] was 6.26. The “Fatty Acid Content, TFA” value [2, 13] was 603.79 mg/g of dry biomass, the “DHA: DPA” value [2, 14] was 5.27 and the “Fatty Acid Content, TFA” value [2, 14] was 578.10 mg/g of dry biomass. For the same compound, the “DHA: DPA” value [2, 15] was 4.54, the “Fatty Acid Content, TFA” value [2, 15] was 540.11 mg/g of dry biomass and the “DHA: DPA” value [3, 16] was 6.77. The “Fatty Acid Content, TFA” value [3, 16] was 658.72 mg/g of dry biomass, the “DHA: DPA” value [3, 17] was 6.87 and the “Fatty Acid Content, TFA” value [3, 17] was 619.88 mg/g of dry biomass. For the same compound, the “DHA: DPA” value [3, 18] was 6.26, the “Fatty Acid Content, TFA” value [3, 18] was 603.79 mg/g of dry biomass and the “DHA: DPA” value [3, 19] was 5.40. The “Fatty Acid Content, TFA” value [3, 19] was 595.96 mg/g of dry biomass, the “DHA: DPA” value [3, 20] was 6.67 and the “Fatty Acid Content, TFA” value [3, 20] was 636.22 mg/g of dry biomass. The “DHA: DPA” value [3, 21] was 6.10, the “Fatty Acid Content, TFA” value [3, 21] was 614.40 mg/g of dry biomass and the “DHA: DPA” value [3, 22] was 6.28. The “Fatty Acid Content, TFA” value [3, 22] was 597.67 mg/g of dry biomass, the “DHA: DPA” value [3, 23] was 4.75 and the “Fatty Acid Content, TFA” value [3, 23] was 617.52 mg/g of dry biomass. The DHA increase ([3]; 6 equivalent doses of cerulenin, 12 μM in total) was 51.6%, the “DHA: DPA” value [3, 24] was 5.66 and the “Fatty Acid Content, TFA” value [3, 24] was 616.79 mg/g of dry biomass. The “DHA: DPA” value [3, 25] was 5.12, the “Fatty Acid Content, TFA” value [3, 25] was 620.75 mg/g of dry biomass and the “DHA: DPA” value [3, 26] was 4.69. For the same compound, the “Fatty Acid Content, TFA” value [3, 26] was 585.23 mg/g of dry biomass, the “DHA: DPA” value [3, 27] was 4.19 and the “Fatty Acid Content, TFA” value [3, 27] was 540.81 mg/g of dry biomass. The “DHA: DPA” value [3, 28] was 3.91, the “Fatty Acid Content, TFA” value [3, 28] was 538.56 mg/g of dry biomass and the DHA % ([3]; flask experiment, multiple and intermittent dosing of cerulenin (12 μM total, 20° C., FIG. 7)) was 68.7%. The “maximal decrease in C14:0” value ([3]; repeated cerulenin dosing) was 85.1%, the “maximal decrease in C16:0” value ([3]; repeated cerulenin dosing) was 83.9% and the “impact on total fatty acids” value ([3]; repeated dose addition of cerulenin) was “no negative impact”. The “increase in DHA yield (gram product/gram carbon consumed) vs control” value ([4]; 6×1 μM cerulenin) was 53%, the “reduction in SFA yield (gram product/gram carbon consumed) vs control” value ([4]; 6×1 μM cerulenin) was 64% and the “DHA concentration increased vs control” value [4, 29] was 71%. The “TFA concentration increased vs control” value [4, 29] was 15%.
